Measurements from US20260347403A1, “FUNGICIDAL COMPOUND” (priority 2022, published 2026).
Where two headings read alike, the source gives them in different places. Numbered stars: 1 amine (or outer) side, 2 acyl side, 3 side chain; on linkers, the order of the positions; unused ones are H or OH. Bridge positions count the residues as written; N and C are the ends. Square brackets hold non-standard residues; d marks the D form. Peptide text beside a SMILES is read from it. * marks the point of attachment. Tridecanoyl(12-Me) = CC(C)CCCCCCCCCCC(=O)*; X1 = NC(=O)CC(O)C(N[*:1])C(=O)[*:2]; NMeF = CN[CH](Cc1ccccc1)C(=O)O; NMeN = CN[CH](CC(N)=O)C(=O)O; X2 = CCC(C)CCCCCCCCCCC(=O)*

What was measured:
Glomerella lagenarium = experiment: Liquid culture, Glomerella lagenarium (Colletotrichum lagenarium), Anthracnose, 3-4 days; assay type: cell-based; conditions: Colletotrichum orbiculare, read-out: % reduction fungal growth
Experimental: Mycelia fragments or conidia suspensions of a fungus, prepared either freshly from liquid cultures of the fungus or from cryogenic storage, were directly mixed into nutrient broth.
A stock solution for compound of Formula I(a) and Formula I(b) was produced in DMSO (max. 10 mg/ml), which was diluted with water plus 0.025% Tween®20 to produce a 10× concentrated sample and 10 μl of this solution was pipetted into a microtiter plate (96-well format). The nutrient broth containing the fungal spores/mycelia fragments was then added to give an end concentration of the tested compound. The test plates were incubated in the dark at 24 °C and 96% rh. The inhibition of fungal growth was determined photometrically after 2-7 days, depending on the pathosystem, and percent antifungal activity relative to the untreated check was calculated.
The effect of the test compound (Formula I(a), I(b) and Lipopeptin A) was tested against the following fungi under the conditions as outlined above and specifically herein below:
Glomerella lagenarium (Colletotrichum lagenarium)/Liquid Culture (Anthracnose)
Conidia of the fungus from cryogenic storage were directly mixed into nutrient broth (PDB potato dextrose broth). The inhibition of growth was measured photometrically 3-4 days after application.

Puccinia recondita = experiment: Leaf disc mixture assay with malonomicin, Puccinia recondita, preventive spray timing, 8 dpi; assay type: in vivo, Puccinia recondita on wheat (cultivar Kanzler); conditions: compound of Formula I(a) lines 1-A to 2-D = 200, 100, 50, 25, 12.5, 6.25, 3.13, 0 ppm
Experimental: A stock solution for the lipopeptide compound of Formula I(a) was produced in DMSO (max. 10 mg/ml). Malonomicin was produced according to Law et al, 2018 (Nature Catalys is |VOL 1|DECEMBER 2018|977-984). A stock solution of malonomicin was produced in water plus 0.025% Tween®20.
Assays to test efficacy of mixtures of compound of Formula I(a) in combination with malonomicin on the control of fungal pathogens in a leaf disc assay were designed for two 24well plates.
Table 22 and Table 23. Outline of 24well testplate (1) and testplate (2) including concentration of compounds sprayed per well. The upper number in the cell indicates compound of Formula I(a) concentration (ppm), the lower number malonomicin concentration (ppm). Column (1) holds a dilution series of compound of Formula I(a), row (2-D) hold a dilution series of malonomicin. Well 2-D-(1) represents an untreated check. This design was applied for tests including Puccinia recondita (EPPO code: PUCCRE) with preventive and curative spray timing.
A first set of master plates with 1× concentrated spray solution of the lipopeptide compound of Formula I(a) stock diluted in water with concentrations according to table 22, table 23, table 25 or table 26, respectively, was prepared. Each well contained 2% DMSO and 0.025% Tween20. Accordingly, a second set of master plates with 1× concentrated malonomicin stock diluted in water was prepared. Each well of the second set contained 0.025% Tween20. Leaf segments placed on agar in 24well plates were sprayed with 8 μl of solution from the master plate containing the lipopeptide compound of Formula I(a) and the leaf segments were let to dry, followed 2 hours later by 8 μl of solution from the master plate containing malonomicin. After second sprays had dried, leaf segments were infected with fungal spores to obtain a preventive application timing. Alternatively, leaf segments infected one day before spray of the compounds were used, resulting in a curative spray timing. In addition, several plates were produced where leaf segments were sprayed 2× in absence of test compound (with only DMSO and Tween20), representing the untreated check samples. For each leaf segment percent leaf coverage of disease symptoms was assessed. Percent leaf coverage reduction relative to the untreated check was calculated. Efficacy of the mixtures was tested in duplicate and on different fungal species. Reported efficacy values are the average of two replicate results.
Puccinia recondita (EPPO Code: PUCCRE) with Preventive Spray Timing.
Wheat (cultivar Kanzler) leaf segments are placed on agar in multiwell plates (24-well format) and sprayed with test solutions (8 ul per well). After drying, the leaf disks are inoculated with a spore suspension of the fungus. After appropriate incubation the activity of a compound is assessed 8 dpi (days after inoculation) as preventive fungicidal activity.

Botrytis cinerea = experiment: Liquid culture 96-well mixture assay with malonomicin, Botrytis cinerea, 72 hrs; assay type: cell-based; conditions: line H malonomicin alone, concentrations in Table 8
Experimental: A stock solution for compound of Formula I(a) was produced in DMSO (max. 10 mg/ml). Malonomicin was produced according to Law et al, 2018 (Nature Catalys is |VOL 1|DECEMBER 2018|977-984). A stock solution of malonomicin was produced in water plus 0.025% Tween® 20.
Assays to test efficacy of mixtures of the lipopeptide compound of Formula I(a) in combination with malonomicin on the control of fungal pathogens in a liquid culture assay were designed for a 96well plate as outlined in table 1:
The 96 well plate design allows to compare disease control of the mixture with disease control of the respective single compound at the same rate.
A master plate with 10× concentrated solution of the compound stock solutions diluted in water plus 0.025% Tween® 20 was prepared. The concentration of DMSO (from the stock of compound of Formula (a)) and Tween® 20 was kept constant in all cells of the master plate. 10 μl was transferred from the master plate to a 96well test plate. The nutrient broth containing the fungal spores/mycelia fragments was then added to the test plate to give an end concentration of 1× for the tested compounds (as outlined in Table 8). The test plates were incubated in the dark at 24 °C and 96% rh. The inhibition of fungal growth was determined photometrically after ca 3 days, and percent fungal growth reduction relative to the untreated check was calculated.
Botrytis cinerea (EPPO Code: BOTRCI)
Conidia of the fungus from cryogenic storage were directly mixed into nutrient broth (Vogel's minimal media).

SMILES | inhibition of growth at 0.41 ppm (Glomerella lagenarium; Table 2) [%] | inhibition of growth at 1.2 ppm (Glomerella lagenarium; Table 2) [%] | inhibition of growth at 3.7 ppm (Glomerella lagenarium; Table 2) [%] | inhibition of growth at 11 ppm (Glomerella lagenarium; Table 2) [%] | inhibition of growth at 33 ppm (Glomerella lagenarium; Table 2) [%] | inhibition of growth at 100 ppm (Glomerella lagenarium; Table 2) [%] | inhibition of growth at 0.41 ppm (Glomerella lagenarium; Table 3) [%] | inhibition of growth at 1.2 ppm (Glomerella lagenarium; Table 3) [%] | inhibition of growth at 3.7 ppm (Glomerella lagenarium; Table 3) [%] | inhibition of growth at 11 ppm (Glomerella lagenarium; Table 3) [%] | inhibition of growth at 33 ppm (Glomerella lagenarium; Table 3) [%] | inhibition of growth at 100 ppm (Glomerella lagenarium; Table 3) [%] | further results
CCC(C)CCCCCCCCCCC(=O)NC1C(=O)NC(CC(=O)O)C(=O)NC(C(O)CC(N)=O)C(=O)NC(CO)C(=O)N(C)C(CC(N)=O)C(=O)N(C)C(Cc2ccccc2)C(=O)NC(CCC(N)=O)C(=O)NC(CCC(=O)O)C(=O)OC1C (stereo not drawn) [Formula I(b)] (X2-TD[X1]S[NMeN][NMeF]QE; ester 1-C; configuration not given here) | 0 | 0 | 0 | 0 | 0 | 0 | 0 | 0 | 0 | 0 | 0 | 0 | –
NC[C@@H]1NC(=O)C(C(=O)CC(NC(=O)[C@@H](N)CO)(C(=O)O)C(=O)O)=C1O [malonomicin, {[(2S)-2-amino-3-hydroxypropanoyl]amino}{2-[(5S)-5-(aminomethyl)-4-hydroxy-2-oxo-2,5-dihydro-1H-pyrrol-3-yl]-2-oxoethyl}malonic acid] | – | – | – | – | – | – | – | – | – | – | – | – | control of fungal growth (% reduction of symtoms on the leaf segment as compared to untreated check) (Puccinia recondita; column (2): malonomicin 200 ppm): 100%; control of fungal growth (% reduction of symtoms on the leaf segment as compared to untreated check) (Puccinia recondita; column (3): malonomicin 20 ppm): 100%; control of fungal growth (% reduction of symtoms on the leaf segment as compared to untreated check) (Puccinia recondita; column (4): malonomicin 6.67 ppm): 80%; control of fungal growth (% reduction of symtoms on the leaf segment as compared to untreated check) (Puccinia recondita; column (5): malonomicin 2.22 ppm): 10%; control of fungal growth (% reduction of symtoms on the leaf segment as compared to untreated check) (Puccinia recondita; column (6): malonomicin 0.74 ppm): 0%; control of fungal growth (% reduction of growth in the test well as compared to untreated check) (Botrytis cinerea; plate column (2), highest malonomicin concentration, lines A-G with compound of Formula I(a) dilution series): 70%; control of fungal growth (% reduction of growth in the test well as compared to untreated check) (Botrytis cinerea; plate column (3) of malonomicin dilution series, lines A-G with compound of Formula I(a)): 70%; control of fungal growth (% reduction of growth in the test well as compared to untreated check) (Botrytis cinerea; plate column (4) of malonomicin dilution series, lines A-G with compound of Formula I(a)): 70%; control of fungal growth (% reduction of growth in the test well as compared to untreated check) (Botrytis cinerea; plate column (5) of malonomicin dilution series, lines A-G with compound of Formula I(a)): 70%; control of fungal growth (% reduction of growth in the test well as compared to untreated check) (Botrytis cinerea; plate column (6) of malonomicin dilution series, lines A-G with compound of Formula I(a)): 70%; control of fungal growth (% reduction of growth in the test well as compared to untreated check) (Botrytis cinerea; plate column (7) of malonomicin dilution series, lines A-G with compound of Formula I(a)): 20%; control of fungal growth (% reduction of growth in the test well as compared to untreated check) (Botrytis cinerea; plate column (8) of malonomicin dilution series, lines A-G with compound of Formula I(a)): 0%; control of fungal growth (% reduction of growth in the test well as compared to untreated check) (Botrytis cinerea; plate column (9) of malonomicin dilution series, lines A-G with compound of Formula I(a)): 0%; control of fungal growth (% reduction of growth in the test well as compared to untreated check) (Botrytis cinerea; plate column (10) of malonomicin dilution series, lines A-G with compound of Formula I(a)): 0%; control of fungal growth (% reduction of growth in the test well as compared to untreated check) (Botrytis cinerea; plate column (11), lowest malonomicin concentration, lines A-G with compound of Formula I(a)): 0%
CC(C)CCCCCCCCCCC(=O)NC1C(=O)NC(CC(=O)O)C(=O)NC(C(O)CC(N)=O)C(=O)NC(CO)C(=O)N(C)C(CC(N)=O)C(=O)N(C)C(Cc2ccccc2)C(=O)NC(CCC(N)=O)C(=O)NC(CCC(=O)O)C(=O)OC1C (stereo not drawn) [Formula I(a)] ({Tridecanoyl(12-Me)}-TD[X1]S[NMeN][NMeF]QE; ester 1-C; configuration not given here) | 0 | 0 | 0 | 50 | 90 | 100 | 0 | 0 | 0 | 0 | 0 | 50 | –
